The values that follow come from patent US11731943B2, “Therapeutic compounds, compositions and methods of use thereof” (priority 2016, dated 2023).

SMILES strings stand for the structures. pIC50, pKi: −log10 of the molar value.

In assay [1] the target is isolated recombinant JAK1 kinase domain (Homo sapiens (Human), UniProt P23458). The assay is described as follows: JAK1 enzyme assay (Caliper LabChip, Ki). It is filed as biochemical. The settings on record: read-out: JAK1 Ki. In outline:
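Recombinant human JAK1 kinase domain phosphorylating an N-terminally 5-carboxyfluorescein-labelled JAK3-derived peptide, 30 min at 22 °C, stopped with EDTA (50 mM final). Phosphorylated fraction of total peptide read by Caliper LabChip mobility shift; Ki from Morrison tight-binding fit corrected for ATP competition (Ki=Ki,app/(1+[ATP]/Km,app)).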

Assay [2] has as its target isolated recombinant JAK2 kinase domain (Homo sapiens (Human), UniProt O60674). As to the kind of experiment: JAK2 enzyme assay (Caliper LabChip, Ki). It is filed as biochemical. The gist of the method: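 Recombinant human JAK1 or JAK2 kinase domain phosphorylating a 5-carboxyfluorescein-labelled JAK3-derived peptide; 30 min at 22 °C, stopped with EDTA (50 mM final). Phosphorylated product measured as a fraction of total peptide by Caliper LabChip mobility shift.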

Assay [3] deals with JAK1-dependent STAT6 phosphorylation downstream of IL-13 stimulation in BEAS-2B human bronchial epithelial cells. The assay is described as follows: JAK1 pathway assay in BEAS-2B cells (IL-13-pSTAT6, MSD). In kind it is cell-based. The conditions noted are these: Homo sapiens, BEAS-2B, BEAS-2B cells, IL-13 stimulation; read-out: IL-13 p-STAT6 BEAS-2B IC50.

Sequence of isolated recombinant JAK2 kinase domain (O60674 849-1124): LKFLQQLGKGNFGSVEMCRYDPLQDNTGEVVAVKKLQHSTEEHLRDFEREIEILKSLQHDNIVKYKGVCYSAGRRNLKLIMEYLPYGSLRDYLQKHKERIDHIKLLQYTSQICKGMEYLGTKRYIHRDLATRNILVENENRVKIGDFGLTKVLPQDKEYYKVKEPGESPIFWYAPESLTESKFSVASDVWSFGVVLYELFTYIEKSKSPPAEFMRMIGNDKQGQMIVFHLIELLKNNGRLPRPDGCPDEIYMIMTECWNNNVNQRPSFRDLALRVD
Sequence of isolated recombinant JAK1 kinase domain (P23458 875-1153): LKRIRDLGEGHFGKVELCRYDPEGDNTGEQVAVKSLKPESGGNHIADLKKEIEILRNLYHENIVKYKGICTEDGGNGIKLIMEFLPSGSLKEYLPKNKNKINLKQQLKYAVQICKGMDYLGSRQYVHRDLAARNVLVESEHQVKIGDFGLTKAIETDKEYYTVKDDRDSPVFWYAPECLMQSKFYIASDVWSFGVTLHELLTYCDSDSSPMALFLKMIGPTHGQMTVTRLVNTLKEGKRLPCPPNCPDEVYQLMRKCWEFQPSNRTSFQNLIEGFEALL

By pKi is commonly meant the negative decadic logarithm of the Ki, by convention in mol/L. The pIC50 is the IC50 on a negative log10 scale, so that one unit is a factor of ten. For the compound `C#CC1CC1C(=O)Nc1nn(C2(CC#N)CCN(Cc3ccc(-c4ccccc4)cc3)CC2F)cc1C(N)=O` (stereo not drawn) [Example 254, 1-[4-(cyanomethyl)-3-fluoro-1-[(4-phenylphenyl)methyl]-4-piperidyl]-3-[(2-ethynylcyclopropanecarbonyl)amino]pyrazole-4-carboxamide], the negative-log Ki (pKi) is 9.37 in assay [1] and 9.09 in assay [2]. Besides, the negative logarithm of the IC50 (pIC50) in assay [3] was 7.37.

As to `N#CCC1(n2cc(C(N)=O)c(NC(=O)C3CC3)n2)CCN(Cc2ccc(-c3ncco3)cc2)CC1F` (stereo not drawn) [Example 255, 1-[4-(cyanomethyl)-3-fluoro-1-[(4-oxazol-2-ylphenyl)methyl]-4-piperidyl]-3-(cyclopropanecarbonylamino) pyrazole-4-carboxamide], the pKi is 8.92 in assay [1] and 9.02 in assay [2]. Also, the pIC50 in assay [3] was 7.15.

`COC(=O)Nc1nn(C2(CC#N)CCN(Cc3cc(O)c(-c4ccc(C)o4)cc3F)CC2F)cc1C(N)=O` (stereo not drawn) [Example 256, methyl N-[4-carbamoyl-1-[4-(cyanomethyl)-3-fluoro-1-[[2-fluoro-5-hydroxy-4-(5-methyl-2-furyl)phenyl]methyl]-4-piperidyl]pyrazol-3-yl]carbamate]: the pKi in assay [1] was 9.82; in assay [2] it was 9.05. In addition, the pIC50 in assay [3] is 7.33.

Consider `COC(=O)Nc1nn(C2(CC#N)CCN(Cc3ccc(C4=CCCCC4)cc3)CC2F)cc1C(N)=O` (stereo not drawn) [Example 257, methyl N-[4-carbamoyl-1-[4-(cyanomethyl)-1-[[4-(cyclohexen-1-yl)phenyl]methyl]-3-fluoro-4-piperidyl]pyrazol-3-yl]carbamate], for which the pKi in assay [1] is 9.14; in assay [2], 8.89. Moreover, the negative-log IC50 (pIC50) in assay [3] was 7.28.

For the compound `COC(=O)Nc1nn(C2(CC#N)CCN(Cc3ccc(C4=CCCCC4)c(O)c3)CC2F)cc1C(N)=O` (stereo not drawn) [Example 258, methyl N-[4-carbamoyl-1-[4-(cyanomethyl)-1-[[4-(cyclohexen-1-yl)-3-hydroxy-phenyl]methyl]-3-fluoro-4-piperidyl]pyrazol-3-yl]carbamate], the pKi in assay [1] was 9.47; in assay [2] it was 9.54. Besides, the pIC50 in assay [3] was 7.47.

As to `C=C(C)c1ccc(CN2CCC(CC#N)(n3cc(C(N)=O)c(NC(=O)C4CC4)n3)C(F)C2)cc1` (stereo not drawn) [Example 259, 1-[4-(cyanomethyl)-3-fluoro-1-[(4-isopropenylphenyl)methyl]-4-piperidyl]-3-(cyclopropanecarbonylamino) pyrazole-4-carboxamide], the pKi in assay [1] is 9.08; in assay [2], 8.74. In addition, in assay [3], the negative-log IC50 (pIC50) is 7.30.

Regarding `C#Cc1ccc(CN2CCC(CC#N)(n3cc(C(N)=O)c(NC(=O)C4CC4)n3)C(F)C2)cc1` (stereo not drawn) [Example 260, 1-[4-(cyanomethyl)-1-[(4-ethynylphenyl)methyl]-3-fluoro-4-piperidyl]-3-(cyclopropanecarbonylamino) pyrazole-4-carboxamide], the pKi in assay [1] was 9.60; in assay [2] it was 9.46. In assay [3], the pIC50 was 7.49.

With `N#CCC1(n2cc(C(N)=O)c(NC(=O)C3CC3)n2)CCN(Cc2ccc(C3=CCCC3)cc2)CC1F` (stereo not drawn) [Example 261, 1-[4-(cyanomethyl)-1-[[4-(cyclopenten-1-yl)phenyl]methyl]-3-fluoro-4-piperidyl]-3-(cyclopropanecarbonylamino) pyrazole-4-carboxamide], the results for the pKi in assay [1] and in assay [2] were 9.25 and 9.09, respectively. Besides, the pIC50 in assay [3] was 7.68.

On to `COC(=O)Nc1nn(C2(CC#N)CCN(Cc3ccc(-c4ccccc4)c(O)c3F)CC2F)cc1C(N)=O` (stereo not drawn) [Example 263, methyl N-[4-carbamoyl-1-[4-(cyanomethyl)-3-fluoro-1-[(2-fluoro-3-hydroxy-4-phenyl-phenyl)methyl]-4-piperidyl]pyrazol-3-yl]carbamate], for which the values for the negative logarithm of the Ki (pKi) in assay [1] and in assay [2] were 9.52 and 9.62, respectively. The pIC50 in assay [3] was 7.60.

Consider `COC(=O)Nc1nn(C2(CC#N)CCN(Cc3ccc(C4=CCCCC4)nc3F)CC2F)cc1C(N)=O` (stereo not drawn) [Example 264, methyl N-[4-carbamoyl-1-[4-(cyanomethyl)-1-[[6-(cyclohexen-1-yl)-2-fluoro-3-pyridyl]methyl]-3-fluoro-4-piperidyl]pyrazol-3-yl]carbamate], for which the negative logarithm of the Ki (pKi) in assay [1] was 9.10; in assay [2], 8.85. In assay [3], the pIC50 is 7.06.

On to `CCc1ccc(C2(F)CN(C3CCC(CC#N)(n4cc(C(N)=O)c(NC(=O)C5CC5)n4)CC3)C2)cc1` (stereo not drawn) [Example 265, 1-[1-(cyanomethyl)-4-[3-(4-ethylphenyl)-3-fluoro-azetidin-1-yl]cyclohexyl]-3-(cyclopropanecarbonylamino) pyrazole-4-carboxamide], for which the pKi in assay [1] was 8.96; in assay [2], 8.38. Also, the pIC50 in assay [3] is 7.06.

Take `COC(=O)Nc1nn(C2(CC#N)CCC(Nc3ccc(-c4ccco4)cc3)CC2)cc1C(N)=O` (stereo not drawn) [Example 266, methyl N-[4-carbamoyl-1-[1-(cyanomethyl)-4-[4-(2-furyl)anilino]cyclohexyl]pyrazol-3-yl]carbamate]: the pKi in assay [1] is 9.11; in assay [2] it was 8.30. The pIC50 in assay [3] was 7.24.

In the case of `COC(=O)Nc1nn(C2(CC#N)CCN(Cc3ccc(-n4ncc(C)n4)cc3)CC2F)cc1C(N)=O` (stereo not drawn) [Example 267, methyl N-[4-carbamoyl-1-[4-(cyanomethyl)-3-fluoro-1-[[4-(4-methyltriazol-2-yl)phenyl]methyl]-4-piperidyl]pyrazol-3-yl]carbamate], the pKi was 9.07 in assay [1] and 9.08 in assay [2]. For the same compound, the pIC50 in assay [3] is 7.29.

For the compound `COC(=O)Nc1nn(C2(CC#N)CCN(Cc3ccc(C4=CCCC4)cc3)CC2F)cc1C(N)=O` (stereo not drawn) [Example 268, methyl N-[4-carbamoyl-1-[4-(cyanomethyl)-1-[[4-(cyclopenten-1-yl)phenyl]methyl]-3-fluoro-4-piperidyl]pyrazol-3-yl]carbamate], the figures for the negative-log Ki (pKi) in assay [1] and in assay [2] were 9.05 and 8.72, respectively. The pIC50 in assay [3] was 7.37.

Regarding `COC(=O)Nc1nn(C2(CC#N)CCN(Cc3ccc(C4=CCCC4)c(O)c3)CC2F)cc1C(N)=O` (stereo not drawn) [Example 269, methyl N-[4-carbamoyl-1-[4-(cyanomethyl)-1-[[4-(cyclopenten-1-yl)-3-hydroxy-phenyl]methyl]-3-fluoro-4-piperidyl]pyrazol-3-yl]carbamate], the pKi was 9.22 in assay [1] and 9.26 in assay [2]. The pIC50 in assay [3] was 7.46.

`C#Cc1ccc(CN2CCC(CC#N)(n3cc(C(N)=O)c(NC(=O)OC)n3)C(F)C2)cc1` (stereo not drawn) [Example 270, methyl N-[4-carbamoyl-1-[4-(cyanomethyl)-1-[(4-ethynylphenyl)methyl]-3-fluoro-4-piperidyl]pyrazol-3-yl]carbamate]: the pKi in assay [1] is 9.39; in assay [2], 9.05. For the same compound, in assay [3], the pIC50 was 7.68.

For the compound `N#CCC1(n2cc(C(N)=O)c(NC(=O)C3CC3)n2)CCN(Cc2ccc(C3CCCCC3)cc2)CC1F` (stereo not drawn) [Example 271, 1-[4-(cyanomethyl)-1-[(4-cyclohexylphenyl)methyl]-3-fluoro-4-piperidyl]-3-(cyclopropanecarbonylamino) pyrazole-4-carboxamide], the values for the pKi in assay [1] and in assay [2] were 8.59 and 7.82, respectively. Moreover, the negative logarithm of the IC50 (pIC50) in assay [3] was 7.08.

Consider `COC(=O)Nc1nn(C2(CC#N)CCN(Cc3ccc(C4=CCCC4)nc3F)CC2F)cc1C(N)=O` (stereo not drawn) [Example 272, methyl N-[4-carbamoyl-1-[4-(cyanomethyl)-1-[[6-(cyclopenten-1-yl)-2-fluoro-3-pyridyl]methyl]-3-fluoro-4-piperidyl]pyrazol-3-yl]carbamate], for which the pKi was 9.17 in assay [1] and 8.80 in assay [2]. In assay [3], the pIC50 was 7.17.

Take `COC(=O)Nc1nn(C2(CC#N)CCN(Cc3cc(O)ccc3Cl)CC2F)cc1C(N)=O` (stereo not drawn) [Example 273, methyl N-[4-carbamoyl-1-[1-[(2-chloro-5-hydroxy-phenyl)methyl]-4-(cyanomethyl)-3-fluoro-4-piperidyl]pyrazol-3-yl]carbamate]: the pKi is 9.48 in assay [1] and 9.51 in assay [2]. For the same compound, the pIC50 in assay [3] is 7.12.

With `C=C(C)c1cc(F)c(CN2CCC(CC#N)(n3cc(C(N)=O)c(NC(=O)OC)n3)C(F)C2)cc1O` (stereo not drawn) [Example 274, methyl N-[4-carbamoyl-1-[4-(cyanomethyl)-3-fluoro-1-[(2-fluoro-5-hydroxy-4-isopropenyl-phenyl)methyl]-4-piperidyl]pyrazol-3-yl]carbamate], the negative-log Ki (pKi) in assay [1] is 9.24; in assay [2] it was 9.21. Moreover, in assay [3], the negative-log IC50 (pIC50) is 7.42.

For `N#CCC1(n2cc(C(N)=O)c(NC(=O)C3CC3)n2)CCC(Nc2ccc(C3=CCCC3)cc2)CC1` (stereo not drawn) [Example 275, 1-[1-(cyanomethyl)-4-[4-(cyclopenten-1-yl)anilino]cyclohexyl]-3-(cyclopropanecarbonylamino) pyrazole-4-carboxamide], the pKi in assay [1] was 8.96; in assay [2] it was 8.09. In assay [3], the pIC50 is 7.28.

`N#CCC1(n2cc(C(N)=O)c(NC(=O)C3CC3)n2)CCC(Nc2ccc(-c3ccco3)cc2)CC1` (stereo not drawn) [Example 276, 1-[1-(cyanomethyl)-4-[4-(2-furyl)anilino]cyclohexyl]-3-(cyclopropanecarbonylamino) pyrazole-4-carboxamide]: the pKi was 9.60 in assay [1] and 8.66 in assay [2]. For the same compound, the pIC50 in assay [3] is 8.05.
